Experimental findings from patent US8748417B2, “Amino-pyrrolidine-azetidine diamides as monoacylglycerol lipase inhibitors” (Janssen Pharmaceutica, NV, priority 2010, dated 2014) are described below.

As usually defined, the IC50 is the concentration that inhibits the measured activity by half.

In the assay the target is T1, purified wild type MGL (wt-MGLL 6H-11-313) (Homo sapiens, UniProt Q99685).
T1 construct: purified wild type MGL (wt-MGLL 6H-11-313)
T1 sequence (Q99685 1-303): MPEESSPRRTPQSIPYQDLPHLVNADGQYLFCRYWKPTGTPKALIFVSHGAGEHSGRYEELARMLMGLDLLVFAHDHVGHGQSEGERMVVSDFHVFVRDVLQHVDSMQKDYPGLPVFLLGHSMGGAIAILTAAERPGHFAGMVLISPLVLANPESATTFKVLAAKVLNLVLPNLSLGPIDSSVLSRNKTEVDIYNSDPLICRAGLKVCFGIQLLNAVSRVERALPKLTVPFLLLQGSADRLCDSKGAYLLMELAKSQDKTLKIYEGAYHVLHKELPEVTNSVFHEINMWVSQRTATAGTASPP
The assay is described as follows: MGL enzyme activity assay (4MU-B cleavage), wild type MGL. The class given is biochemical. Particulars: wild type MGL 5 nM, 4MU-B 10 μM, 37° C.; read-out: MGL wild type inh IC50. On the procedure:
All rate-based assays were performed in black 384-well polypropylene PCR microplates (Abgene) in a total volume of 30 μL. Substrate 4-methylumbelliferyl butyrate (4MU-B; Sigma) and either purified mutant MGL (mut-MGLL 11-313 L179S L186S) or purified wild type MGL (wt-MGLL 6H-11-313) were diluted separately into 20 mM PIPES buffer (pH=7.0), containing 150 mM NaCl and 0.001% Tween 20. Compounds of Formula (I) were pre-dispensed (50 nL) into the assay plate using a Cartesian Hummingbird prior to adding 4MU-B (25 μL of 1.2× solution to a final concentration of 10 μM) followed by enzyme (5 μL of a 6× solution to a final concentration of 5 nM) to initiate the reaction. Final compound concentrations ranged from 17 to 0.0003 μM. The fluorescence change due to 4MU-B cleavage was monitored with excitation and emission wavelengths of 335 and 440 nm, respectively, and a bandwidth of 10 nm (Safire^2, Tecan) at 37° C. for 5 min.
The IC50 values for the following compounds were determined using Microsoft Office Excel from a fit of the equation to the concentration-response plot of the fractional activity as a function of inhibitor concentration.
Take `O=C(c1ccccc1)N1CC[C@H](NC2CN(C(=O)c3sc4cc(C(F)(F)F)ccc4c3-c3ccccc3)C2)C1` [Cpd 74, (3S)-1-(Phenylcarbonyl)-N-(1-{[3-phenyl-6-(trifluoromethyl)-1-benzothiophen-2-yl]carbonyl}azetidin-3-yl)pyrrolidin-3-amine]: the IC50 was found to be 277 nM.
As to `O=C(c1ccccc1)N1CC[C@H](NC2CN(C(=O)c3sc4cc(C(F)(F)F)ccc4c3C3CC3)C2)C1` [Cpd 75, (3S)-N-(1-{[3-Cyclopropyl-6-(trifluoromethyl)-1-benzothiophen-2-yl]carbonyl}azetidin-3-yl)-1-(phenylcarbonyl)pyrrolidin-3-amine], the IC50 was 210 nM.
For the molecule `O=C(c1ccccc1)N1CC[C@H](NC2CN(C(=O)c3sc4cc(F)ccc4c3C3CCC3)C2)C1` [Cpd 79, (3S)-N-{1-[(3-Cyclobutyl-6-fluoro-1-benzothiophen-2-yl)carbonyl]azetidin-3-yl}-1-(phenylcarbonyl)pyrrolidin-3-amine], the IC50 amounted to 281 nM.
In the case of `Cc1c(C(=O)N2CC(N(C=O)[C@H]3CCN(C(=O)c4ccccc4)C3)C2)sc2ccc(Cl)cc12` [Cpd 81, N-[1-[(5-Chloro-3-methyl-1-benzothiophen-2-yl)carbonyl]azetidin-3-yl]-N-[(3S)-1-(phenylcarbonyl)pyrrolidin-3-yl]formamide], the IC50 is 4880 nM.
For `Cc1c(C(=O)N2CC(N(C=O)[C@H]3CCN(C(=O)c4nccs4)C3)C2)sc2ccc(Cl)cc12` [Cpd 82, N-{1-[(5-Chloro-3-methyl-1-benzothiophen-2-yl)carbonyl]azetidin-3-yl}-N-[(3S)-1-(1,3-thiazol-2-ylcarbonyl)pyrrolidin-3-yl]formamide], the concentration for half-maximal inhibition (IC50) was determined as 231 nM.
For `Cc1c(C(=O)N2CC(N(C=O)[C@H]3CCN(C(=O)c4cscn4)C3)C2)sc2ccc(Cl)cc12` [Cpd 83, N-{1-[(5-Chloro-3-methyl-1-benzothiophen-2-yl)carbonyl]azetidin-3-yl}-N-[(3S)-1-(1,3-thiazol-4-ylcarbonyl)pyrrolidin-3-yl]formamide], the half-maximal inhibitory concentration (IC50) stood at 2440 nM.
With `Cc1c(C(=O)N2CC(N[C@H]3CCN(C(=O)c4ccccc4)C3)C2)sc2cc(F)ccc12` [Cpd 86, (3S)-N-{1-[(6-Fluoro-3-methyl-1-benzothiophen-2-yl)carbonyl]azetidin-3-yl}-1-(phenylcarbonyl)pyrrolidin-3-amine], the IC50 was found to be 298 nM.
The value for `Cc1c(C(=O)N2CC(N[C@H]3CCN(C(=O)c4cscn4)C3)C2)sc2cc(F)ccc12` [Cpd 88, (3S)-N-{1-[(6-Fluoro-3-methyl-1-benzothiophen-2-yl)carbonyl]azetidin-3-yl}-1-(1,3-thiazol-4-ylcarbonyl)pyrrolidin-3-amine] was 152 nM; that for `O=C(c1ccccc1)N1CC[C@H](NC2CN(C(=O)c3sc4cc(C(F)(F)F)ccc4c3F)C2)C1` [Cpd 89, (3S)-N-(1-{[3-Fluoro-6-(trifluoromethyl)-1-benzothiophen-2-yl]carbonyl}azetidin-3-yl)-1-(phenylcarbonyl)pyrrolidin-3-amine] was 154 nM.
As for `Cc1c(C(=O)N2CC(N[C@H]3CCN(C(=O)c4nccs4)C3)C2)sc2ccc(-c3ccc(C(F)(F)F)cc3)cc12` [Cpd 91, (3S)-N-[1-({3-Methyl-5-[4-(trifluoromethyl)phenyl]-1-benzothiophen-2-yl}carbonyl)azetidin-3-yl]-1-(1,3-thiazol-2-ylcarbonyl)pyrrolidin-3-amine], the IC50 is under 5 nM.
Take `O=C(c1cc2ccc(Br)cc2s1)N1CC(N[C@H]2CCN(C(=O)c3nccs3)C2)C1` [Cpd 95, (3S)-N-{1-[(6-Bromo-1-benzothiophen-2-yl)carbonyl]azetidin-3-yl}-1-(1,3-thiazol-2-ylcarbonyl)pyrrolidin-3-amine]: the IC50 was determined as 410 nM.
As to `O=C(c1cscn1)N1CC[C@H](NC2CN(C(=O)c3cc4ccc(Br)cc4s3)C2)C1` [Cpd 96, (3S)-N-{1-[(6-Bromo-1-benzothiophen-2-yl)carbonyl]azetidin-3-yl}-1-(1,3-thiazol-4-ylcarbonyl)pyrrolidin-3-amine], the half-maximal inhibitory concentration (IC50) was 1050 nM.
On to `O=C(c1cc2cc(Br)ccc2s1)N1CC(N[C@H]2CCN(C(=O)c3nccs3)C2)C1` [Cpd 97, (3S)-N-{1-[(5-Bromo-1-benzothiophen-2-yl)carbonyl]azetidin-3-yl}-1-(1,3-thiazol-2-ylcarbonyl)pyrrolidin-3-amine], for which the IC50 came to 133 nM.
Next, `O=C(c1cscn1)N1CC[C@H](NC2CN(C(=O)c3cc4cc(Br)ccc4s3)C2)C1` [Cpd 98, (3S)-N-{1-[(5-Bromo-1-benzothiophen-2-yl)carbonyl]azetidin-3-yl}-1-(1,3-thiazol-4-ylcarbonyl)pyrrolidin-3-amine]: 3100 nM; `O=C(c1ccccc1)N1CC[C@H](NC2CN(C(=O)c3cc4cc(Br)ccc4o3)C2)C1` [Cpd 107, (3S)-N-{1-[(5-Bromo-1-benzofuran-2-yl)carbonyl]azetidin-3-yl}-1-(phenylcarbonyl)pyrrolidin-3-amine]: over 16700 nM; `O=C(c1ccc2c(-c3ccccc3)ncnc2c1)N1CC(N[C@H]2CCN(C(=O)c3ccccc3)C2)C1` [Cpd 108, (3S)-1-(Phenylcarbonyl)-N-{1-[(4-phenylquinazolin-7-yl)carbonyl]azetidin-3-yl}pyrrolidin-3-amine]: 1030 nM.
The value for `O=C(c1ccc2c(-c3ccc(C(F)(F)F)cc3)ncnc2c1)N1CC(N[C@H]2CCN(C(=O)c3ccccc3)C2)C1` [Cpd 109, (3S)-1-(Phenylcarbonyl)-N-[1-({4-[4-(trifluoromethyl)phenyl]quinazolin-7-yl}carbonyl)azetidin-3-yl]pyrrolidin-3-amine] was 857 nM; that for `O=C(c1ccc2c(-c3ccccc3)ncnc2c1)N1CC(N[C@H]2CCN(C(=O)c3nccs3)C2)C1` [Cpd 110, (3S)-N-{1-[(4-Phenylquinazolin-7-yl)carbonyl]azetidin-3-yl}-1-(1,3-thiazol-2-ylcarbonyl)pyrrolidin-3-amine] was 311 nM; that for `O=C(c1ccc2c(-c3ccc(C(F)(F)F)cc3)ncnc2c1)N1CC(N[C@H]2CCN(C(=O)c3nccs3)C2)C1` [Cpd 111, (3S)-1-(1,3-Thiazol-2-ylcarbonyl)-N-[1-({4-[4-(trifluoromethyl)phenyl]quinazolin-7-yl}carbonyl)azetidin-3-yl]pyrrolidin-3-amine] was 179 nM.
`O=C(c1ccc2c(-c3ccccc3)ncnc2c1)N1CC(N[C@H]2CCN(C(=O)c3cscn3)C2)C1` [Cpd 112, (3S)-N-{1-[(4-Phenylquinazolin-7-yl)carbonyl]azetidin-3-yl}-1-(1,3-thiazol-4-ylcarbonyl)pyrrolidin-3-amine]: the IC50 turned out to be 1660 nM.
The value for `O=C(c1ccc2c(cnn2-c2ccccc2)c1)N1CC(N[C@H]2CCN(C(=O)c3nccs3)C2)C1` [Cpd 120, (3S)-N-{1-[(1-Phenyl-1H-indazol-5-yl)carbonyl]azetidin-3-yl}-1-(1,3-thiazol-2-ylcarbonyl)pyrrolidin-3-amine] was 372 nM; that for `O=C(c1ccccc1)N1CC[C@H](NC2CN(C(=O)c3cc4cc(-c5ccccc5)ccc4o3)C2)C1` [Cpd 121, (3S)-N-{1-[(5-Phenyl-1-benzofuran-2-yl)carbonyl]azetidin-3-yl}-1-(phenylcarbonyl)pyrrolidin-3-amine] was 1750 nM.
